{"source": "paper PMC8343220", "about": "“The selectivity of α‐adrenoceptor agonists for the human α1A, α1B, and α1D‐adrenoceptors” (Pharmacology Research & Perspectives, 2021)", "key": {"human α1A‐adrenoceptor [1]": {"biological_target": "T1, human α1A‐adrenoceptor (Homo sapiens, UniProt P35348)", "T1 construct": "expressed in transfected cells; host or cells: CHO-K1", "T1 sequence (P35348 1-466)": "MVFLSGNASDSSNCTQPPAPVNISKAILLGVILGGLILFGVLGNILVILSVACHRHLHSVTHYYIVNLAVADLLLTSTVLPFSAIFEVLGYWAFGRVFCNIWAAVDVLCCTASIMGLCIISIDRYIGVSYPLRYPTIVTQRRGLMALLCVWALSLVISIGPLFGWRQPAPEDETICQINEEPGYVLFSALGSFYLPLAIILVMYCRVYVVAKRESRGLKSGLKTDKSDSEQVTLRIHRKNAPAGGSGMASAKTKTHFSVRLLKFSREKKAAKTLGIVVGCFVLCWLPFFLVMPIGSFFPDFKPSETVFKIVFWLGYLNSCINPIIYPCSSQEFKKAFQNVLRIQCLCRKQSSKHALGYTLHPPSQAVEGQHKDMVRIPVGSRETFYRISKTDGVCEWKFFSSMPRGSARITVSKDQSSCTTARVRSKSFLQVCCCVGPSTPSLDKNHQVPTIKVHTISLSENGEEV", "assay": "Intracellular free calcium mobilization, CHO‐α1A cells", "type": "cell-based", "conditions": "for Intracellular calcium release % ionomycin: CHO‐α1A cells, maximal response as % of 10 µM ionomycin"}, "human α1A‐adrenoceptor [2]": {"biological_target": "T1, human α1A‐adrenoceptor", "assay": "ERK1/2‐phosphorylation (Surefire Alphascreen), CHO‐α1A cells", "type": "cell-based", "conditions": "CHO‐α1A cells; % of 10 µM PDBu; ^a bi‐phasic: initial stimulatory part"}, "[3]": {"system": "parental CHO cell line without any transfected receptors", "assay": "ERK1/2‐phosphorylation, parent CHO cells without transfected receptors", "type": "cell-based, Chinese hamster"}, "[4]": {"system": "parental CHO cell line without any transfected receptors", "assay": "Forskolin‐stimulated cAMP accumulation, parent CHO cells without transfected receptors", "type": "cell-based, Chinese hamster"}, "[5]": {"biological_target": "T2, human α1D‐adrenoceptor (full length) (Homo sapiens, UniProt P25100)", "T2 construct": "human α1D‐adrenoceptor (full length) were used; expressed in transfected cells; host or cells: CHO-K1", "T2 sequence (P25100 1-572)": "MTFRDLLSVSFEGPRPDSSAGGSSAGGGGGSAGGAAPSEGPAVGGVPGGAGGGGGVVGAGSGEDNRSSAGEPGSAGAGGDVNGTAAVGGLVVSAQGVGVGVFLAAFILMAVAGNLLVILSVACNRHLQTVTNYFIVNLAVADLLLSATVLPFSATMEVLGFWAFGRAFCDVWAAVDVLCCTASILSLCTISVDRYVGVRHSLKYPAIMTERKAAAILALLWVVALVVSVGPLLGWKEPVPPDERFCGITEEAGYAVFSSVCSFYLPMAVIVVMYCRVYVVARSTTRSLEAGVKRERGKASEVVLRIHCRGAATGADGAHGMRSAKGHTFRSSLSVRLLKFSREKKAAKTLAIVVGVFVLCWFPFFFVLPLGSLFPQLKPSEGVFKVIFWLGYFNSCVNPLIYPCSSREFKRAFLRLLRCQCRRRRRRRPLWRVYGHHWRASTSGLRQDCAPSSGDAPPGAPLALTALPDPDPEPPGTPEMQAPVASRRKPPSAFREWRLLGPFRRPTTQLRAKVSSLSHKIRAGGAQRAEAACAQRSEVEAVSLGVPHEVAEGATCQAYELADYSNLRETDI", "assay": "Intracellular free calcium mobilization, CHO‐α1D cells", "type": "cell-based", "conditions": "CHO‐α1D cells; for Intracellular calcium release % ionomycin: maximal response as % of 10 µM ionomycin"}, "human α1A‐adrenoceptor [6]": {"biological_target": "T1, human α1A‐adrenoceptor", "assay": "^3H‐cAMP accumulation, CHO‐α1A cells", "type": "cell-based", "conditions": "CHO‐α1A cells; % of 10 µM forskolin response"}, "[7]": {"system": "parental CHO cell line without any transfected receptors", "assay": "Intracellular calcium mobilization, parent CHO cells without transfected receptors", "type": "cell-based, Chinese hamster", "conditions": "Cricetulus griseus; CHO cells without transfected receptors; response at maximum concentration used (c2), as % of ionomycin (10μM) response; mean ± s.e.m.; read-out: Intracellular calcium release % ionomycin"}, "[8]": {"biological_target": "T2, human α1D‐adrenoceptor (full length)", "assay": "ERK1/2‐phosphorylation (Surefire Alphascreen), CHO‐α1D cells", "type": "cell-based", "conditions": "CHO‐α1D cells; for ERK1/2‐phosphorylation % PDBu: maximal response as % of PDBu"}, "[9]": {"biological_target": "T2, human α1D‐adrenoceptor (full length)", "assay": "^3H‐cAMP accumulation in the presence of 10 μM forskolin, CHO‐α1D cells", "type": "cell-based", "conditions": "for Effect on cAMP accumulation in the presence of forskolin, CHO‐α1D cells: not α1‐mediated"}, "human α1B‐adrenoceptor [10]": {"biological_target": "T3, human α1B‐adrenoceptor (Homo sapiens, UniProt P35368)", "T3 construct": "expressed in transfected cells; host or cells: CHO-K1", "T3 sequence (P35368 1-520)": "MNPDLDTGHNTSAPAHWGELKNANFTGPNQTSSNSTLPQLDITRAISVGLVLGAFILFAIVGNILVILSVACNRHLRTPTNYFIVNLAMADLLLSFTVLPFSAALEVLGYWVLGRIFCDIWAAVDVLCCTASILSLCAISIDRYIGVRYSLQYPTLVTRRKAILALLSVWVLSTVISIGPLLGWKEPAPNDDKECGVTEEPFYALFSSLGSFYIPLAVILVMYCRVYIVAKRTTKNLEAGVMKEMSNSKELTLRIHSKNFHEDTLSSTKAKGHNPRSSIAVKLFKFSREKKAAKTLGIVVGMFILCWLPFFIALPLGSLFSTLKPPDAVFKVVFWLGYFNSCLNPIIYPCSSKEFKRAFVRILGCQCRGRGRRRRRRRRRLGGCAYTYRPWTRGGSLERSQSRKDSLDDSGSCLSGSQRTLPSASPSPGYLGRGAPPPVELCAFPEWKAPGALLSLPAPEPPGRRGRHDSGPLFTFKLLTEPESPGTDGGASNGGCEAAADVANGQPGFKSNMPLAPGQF", "assay": "Intracellular free calcium mobilization, CHO‐α1B cells", "type": "cell-based", "conditions": "CHO‐α1B cells"}, "human α1A‐adrenoceptor [11]": {"biological_target": "T1, human α1A‐adrenoceptor", "assay": "^3H‐prazosin whole‐cell radioligand binding, CHO‐α1A cells"}, "human α1B‐adrenoceptor [12]": {"biological_target": "T3, human α1B‐adrenoceptor", "assay": "^3H‐prazosin whole‐cell radioligand binding, CHO‐α1B cells", "conditions": "CHO‐α1B cells"}, "[13]": {"biological_target": "T2, human α1D‐adrenoceptor (full length)", "assay": "^3H‐prazosin whole‐cell radioligand binding, CHO‐α1D cells", "conditions": "for Kd: CHO‐α1D cells"}, "human α1B‐adrenoceptor [14]": {"biological_target": "T3, human α1B‐adrenoceptor", "assay": "ERK1/2‐phosphorylation (Surefire Alphascreen), CHO‐α1B cells", "type": "cell-based", "conditions": "CHO‐α1B cells; maximal response as % PDBu response; for bi‐phasic responses the initial stimulatory part"}, "[15]": {"conditions": "CHO cells without transfected receptors, maximal response as % of PDBu (10μM) response, mean ± s.e.m."}}}
{"smiles": "Cc1cc(C(C)(C)C)c(O)c(C)c1CC1=NCCN1", "note": "[Oxymethazoline]", "values": [{"measurement": "Intracellular calcium release % ionomycin", "setting": "human α1A‐adrenoceptor [1]", "result": "54.5 ± 2.5", "unit": "%"}, {"measurement": "ERK1/2‐phosphorylation % PDBu", "setting": "human α1A‐adrenoceptor [2]", "result": "92.8 ± 2.7", "unit": "%"}, {"measurement": "Emax", "setting": "[3]; Cricetulus griseus, CHO cells without transfected receptors, maximal response as % of PDBu (10μM) response, mean ± s.e.m., read-out: ERK1/2-phosphorylation % PDBu", "result": "46.7 ± 6", "unit": "%"}, {"measurement": "EC50", "setting": "[3]; Cricetulus griseus, CHO cells without transfected receptors, mean ± s.e.m., read-out: ERK1/2-phosphorylation Log EC50 (converted)", "result": 11, "unit": "nM"}, {"measurement": "ERK1/2‐phosphorylation response in parent CHO cells", "setting": "[3]; untransfected cells", "result": "stimulated ERK1/2‐phosphorylation responses"}, {"measurement": "% inhibition of forskolin-stimulated cAMP", "setting": "[4]; CHO cells without transfected receptors, footnote *: % inhibition", "result": "18.1 ± 2.2", "unit": "%"}, {"measurement": "IC50", "setting": "[4]; Cricetulus griseus, CHO cells without transfected receptors, footnote *: log IC50, read-out: log IC50, decrease in forskolin-stimulated cAMP accumulation (converted)", "result": 19.5, "unit": "nM"}, {"measurement": "Effect on cAMP accumulation in the presence of forskolin, parent cells", "setting": "[4]; untransfected cells", "result": "decrease in cAMP accumulation"}, {"measurement": "Intracellular calcium release % ionomycin", "setting": "[5]", "result": "7.6 ± 1.0", "unit": "%"}, {"measurement": "cAMP accumulation % forskolin", "setting": "human α1A‐adrenoceptor [6]", "result": "43.9 ± 5.2", "unit": "%"}, {"measurement": "Emax", "setting": "[7]", "result": "3.1 ± 0.9", "unit": "%"}, {"measurement": "ERK1/2‐phosphorylation % PDBu", "setting": "[8]", "result": "48.6 ± 5.4", "unit": "%"}, {"measurement": "% inhibition of forskolin‐stimulated cAMP", "setting": "[9]; CHO‐α1D cells, decrease in forskolin‐stimulated cAMP accumulation (footnote b)", "result": "*28.7 ± 2.9%"}, {"measurement": "Effect on cAMP accumulation in the presence of forskolin, CHO‐α1D cells", "setting": "[9]; listed as Oxymetazoline", "result": "decrease in cAMP accumulation"}, {"measurement": "Effect on cAMP accumulation in the presence of forskolin, CHO‐α1D cells", "setting": "[9]; listed as oxymetazoline", "result": "inhibitory cAMP response"}]}
{"smiles": "OCc1cc(C(O)CNCCCCCCOCCCCc2ccccc2)ccc1O", "note": "(centres unmarked) [Salmeterol]", "values": [{"measurement": "Intracellular calcium release % ionomycin at 10 µM", "setting": "human α1A‐adrenoceptor [1]", "result": "28.2 ± 2.7", "unit": "%"}, {"measurement": "ERK1/2-phosphorylation Log EC50", "setting": "[3]", "result": "No response"}, {"measurement": "ERK1/2-phosphorylation % PDBu", "setting": "[3]; [15]", "result": "No response"}, {"measurement": "Intracellular calcium release % ionomycin at 10 µM", "setting": "human α1B‐adrenoceptor [10]; response at 10 µM ligand (no EC50 given), % of ionomycin response", "result": "15.2 ± 4.0", "unit": "%"}, {"measurement": "Intracellular calcium release Log EC50", "setting": "[5]; log values given negative", "result": "No response"}, {"measurement": "Intracellular calcium release % ionomycin", "setting": "[5]", "result": "No response"}, {"measurement": "Affinity selectivity ratio α1A vs α1B", "setting": "human α1A‐adrenoceptor [11]", "result": 9.5, "unit": "fold"}, {"measurement": "Kd", "setting": "human α1A‐adrenoceptor [11]", "result": 776, "unit": "nM"}, {"measurement": "Kd", "setting": "human α1B‐adrenoceptor [12]; given as log KD (negative), mean ± SEM", "result": 7.41, "unit": "µM"}, {"measurement": "Kd", "setting": "human α1B‐adrenoceptor [12]; Log KD, ^3H‐prazosin binding, whole‐cell binding (from Table 1), given as log KD (negative numbers)", "result": 7.41, "unit": "µM"}, {"measurement": "Emax", "setting": "[7]", "result": "3.2 ± 1.4", "unit": "%"}, {"measurement": "ERK1/2‐phosphorylation Log EC50", "setting": "[8]; log values given negative", "result": "No response"}, {"measurement": "ERK1/2‐phosphorylation % PDBu", "setting": "[8]", "result": "No response"}, {"measurement": "Affinity selectivity ratio α1B vs α1D", "setting": "[13]", "result": 4.4, "unit": "fold"}, {"measurement": "Kd", "setting": "[13]; 3H‐prazosin binding Log KD, whole‐cell binding (from Table 1), log values given negative", "result": 1700, "unit": "nM"}, {"measurement": "Kd", "setting": "[13]; given as log KD (negative), mean ± SEM, 'early plateau' = specific binding not fully inhibited", "result": 1700, "unit": "nM"}]}
{"smiles": "O=C1CC2(CCCC2)CC(=O)N1CCCCN1CCN(c2ncccn2)CC1", "note": "[Buspirone]", "values": [{"measurement": "ERK1/2‐phosphorylation % PDBu", "setting": "human α1B‐adrenoceptor [14]", "result": "47.2 ± 8.6", "unit": "%"}, {"measurement": "Intracellular calcium release % ionomycin", "setting": "human α1A‐adrenoceptor [1]", "result": "46.7 ± 3.0", "unit": "%"}, {"measurement": "ERK1/2‐phosphorylation % PDBu", "setting": "human α1A‐adrenoceptor [2]", "result": "47.3 ± 10.6", "unit": "%"}, {"measurement": "ERK1/2-phosphorylation % PDBu", "setting": "[3]; [15]", "result": "No response"}, {"measurement": "Intracellular calcium release % ionomycin", "setting": "human α1B‐adrenoceptor [10]; maximal response as % of 10 µM ionomycin response", "result": "47.8 ± 3.2", "unit": "%"}, {"measurement": "cAMP accumulation (in presence of forskolin) % forskolin-stim cAMP at 100μM", "setting": "[4]; CHO cells without transfected receptors, response at 100μM only, EC50 not obtainable, % of forskolin-stimulated cAMP", "result": "113.6 ± 5.2", "unit": "%"}, {"measurement": "Intracellular calcium release % ionomycin", "setting": "[5]", "result": "9.0 ± 1.5", "unit": "%"}, {"measurement": "cAMP accumulation % forskolin", "setting": "human α1A‐adrenoceptor [6]", "result": "3.3 ± 0.06", "unit": "%"}, {"measurement": "Emax", "setting": "[7]", "result": "3.1 ± 2.3", "unit": "%"}, {"measurement": "ERK1/2‐phosphorylation % PDBu", "setting": "[8]", "result": "11.3 ± 2.5", "unit": "%"}]}
